Assays:
SH-SY5Y neuronal cells [1] = assay: Mitochondrial membrane potential against MPP+ iodide damage, JC-1 assay; assay type: cell-based, human; settings: MPP+ iodide 1 mM; for Mitochondrial membrane potential: red/green fluorescence ratio
Description: The plated cells were incubated overnight in 5% CO2 incubator at 37° C. After 24 h, cells were treated with concentrations of recombinant lectin protein having SEQ ID NO: 1 ranging from 1 μg/ml-50 μg/ml for 24 h. After 24 h of treatment, cells were exposed to damage (MPP+ iodide 1 mM) for 24 h. […] Untreated cells were included as control. Cells treated with Deprenyl served as positive control. After MPP+ iodide exposure, the protective effect of recombinant lectin protein having SEQ ID NO: 1 on mitochondrial membrane potential was assessed by JC-1 assay as follows; after incubation, the supernatants were discarded and 100 μl of JC1-dye solution (prepared by diluting 1 mM DMSO stock in to 10 μM in 1×PBS) was added to each well. The cells were then incubated with the dye in CO2 incubator at 37° C. for 15 min. After 15 min of incubation, the supernatant was removed, and the cells were washed twice with 1×PBS (phosphate buffer saline). 100 μl of 1×PBS was finally added to each well. Red fluorescence (excitation 550 nm, emission 600 nm) and green fluorescence (excitation 485 nm, emission 535 nm) were measured using Biotek Synergy HT plate reader. The mitochondrial membrane potential (Δψm) was calculated as the ratio of intensity of red fluorescence to intensity of green fluorescence described as follows: • Δψm=Intensity of red fluorescence/Intensity of green fluorescence • The percentage increase/restoration in Mitochondrial Membrane Potential against MPP+ iodide damage was calculated as:
[formula] • Where X=Δψm corresponding to SEQ ID NO: 1+ MPP+ iodide treated cells • R=Δψm corresponding to control cells (MPP+ iodide damage alone)

SH-SY5Y neuronal cells [2] = assay: Cytoprotective effect against MPP+ iodide induced damage, MTT assay; settings: MPP+ iodide 1 mM
Description: The Human Neuronal SH-SY5Y Cells were counted using hemocytometer and plated in 96 well plate at a density of 25,000 cells/well and incubated at 37° C. for 24 h. After incubation, cells were treated with recombinant lectin protein having the sequence of SEQ ID NO: 1 at concentrations ranging from 0.001 μg/ml 50 μg/ml for 24 h. After 24 h of treatment, cells were exposed to neurotoxin (MPP+ iodide, 1 mM) for 24 h. Cells treated with MPP+ iodide alone were included as negative control. Untreated cells were included as control. […] After treatment, the cytoprotective effect of SEQ ID NO: 1 on cell viability was assessed by 3-(4,5-dimethythiazol-2-yl)-2,5-diphenyl tetrazolium bromide (MTT) assay: The plate was taken out and 20 μl of 5 mg/ml of MTT 3-(4,5-dimethythiazol-2-yl)-2,5-diphenyl tetrazolium bromide solution was added to all the wells. The SH-SY5Y cells were incubated for 3 h at 37° C. The supernatant was aspirated and 150 μl of DMSO was added to each well to dissolve formazan crystals. The absorbance of each well was read at 540 nm using Synergy HT micro plate reader. The protective effect of the SEQ ID NO: 1 on survival of SH-SY5Y cells against MPP+ iodide induced damage was determined as: The viability of cells was determined as:
Where, the percentage cytotoxicity corresponding to each treatment was calculated as follows:
[formula] • X=Absorbance of cells treated with MPP+ iodide/recombinant lectin having SEQ ID NO: 1+MPP+Iodide • R=Absorbance of Control cells (Untreated) • Percentage protection was calculated as:
[(Absorbance of SEQ ID NO:1+MPP+Iodide)−(Absorbance of MPP+Iodide)/(Absorbance of Untreated)−(Absorbance of MPP+Iodide alone)]*100

In the case of `C#CCN(C)[C@H](C)Cc1ccccc1` [Deprenyl, reference compound], the “% Increase in Mitochondrial potential (w.r.t. control)” value (shortened to “% Increase in Mitochondrial potential”) (SH-SY5Y neuronal cells [1]; 1 μM) is reported as 58.2%, the Mitochondrial membrane potential (SH-SY5Y neuronal cells [1]; 1 μM) is reported as 2.9 and the “% Increase in Mitochondrial potential” value (SH-SY5Y neuronal cells [1]; 10 μM) is reported as 67.9%. The Mitochondrial membrane potential (SH-SY5Y neuronal cells [1]; 10 μM) was 3.1, the “% Increase in Mitochondrial potential” value (SH-SY5Y neuronal cells [1]; 25 μM) was 95.3% and the Mitochondrial membrane potential (SH-SY5Y neuronal cells [1]; 25 μM) was 3.6. The “% Increase in Mitochondrial potential” value (SH-SY5Y neuronal cells [1]; 50 μM) was 79.6%, the Mitochondrial membrane potential (SH-SY5Y neuronal cells [1]; 50 μM) was 3.3 and the “% Increase in Mitochondrial potential” value (SH-SY5Y neuronal cells [1]; 100 μM) was 39.9%. The Mitochondrial membrane potential (SH-SY5Y neuronal cells [1]; 100 μM) was 2.6, the “Percentage Protection” value (SH-SY5Y neuronal cells [2]; 1 μM) was 41.5% and the “Percentage Protection” value (SH-SY5Y neuronal cells [2]; 10 μM) was 49%. For the same molecule, the “Percentage Protection” value (SH-SY5Y neuronal cells [2]; 25 μM) was 75.6%, the “Percentage Protection” value (SH-SY5Y neuronal cells [2]; 50 μM) was 74.7% and the “Percentage Protection” value (SH-SY5Y neuronal cells [2]; 100 μM) was 67.5%.

Reference: patent US20240398899A1 (priority 2021, published 2024)
